# Several values for one entry are separate records, joined by “and”; a condition that tells them apart may be missing. Equal entries are not always repeated.
# Columns and labels:
# [1] = Decarboxylation of oxaloacetate to produce pyruvate was measured bythe conversion of NADH to NAD+ in the lactate dehydrogenase mediated transformation of pyruvate to lactate; expressed as Catalytic efficiency as the ratio of (kcat/KM)
# [2] = test system: CC(C)C[C@H](NC(=O)[C@H](C)NC(=O)[C@H](CCCCN)NC(=O)[C@H](CC(C)C)NC(=O)[C@H](CC(C)C)NC(=O)[C@@H](CCCCN)NC(=O)[C@H](C)NC(=O)[C@@H](N)CC(C)C)C(=O)N[C@@H](C)C(=O)N[C@@H](CCCCN)C(=O)N[C@@H](CC(C)C)C(=O)N[C@@H](CC(C)C)C(=O)N[C@@H](CCCCN)C(=O)N[C@@H](CCCCN)C(N)=O; experiment: (§1) Decarboxylation of oxaloacetate to produce pyruvate was measured bythe conversion of NADH to NAD+ in the lactate dehydrogenase mediated transformation of pyruvate to lactate at a uM
# [3] = test system: CC(=O)NCC(=O)N1CCC[C@H]1C(=O)N[C@@H](CO)C(=O)N[C@@H](CCC(N)=O)C(=O)N1CCC[C@H]1C(=O)N[C@H](C(=O)N[C@@H](Cc1ccc(O)cc1)C(=O)N1CCC[C@H]1C(=O)NCC(=O)N[C@@H](CC(=O)O)C(=O)N[C@@H](CC(=O)O)C(=O)N[C@@H](C)C(=O)N1CCC[C@H]1C(=O)N[C@H](C(=O)N[C@@H](CCC(=O)O)C(=O)N[C@@H](CC(=O)O)C(=O)N[C@@H](CC(C)C)C(=O)N[C@@H](CCCCN)C(=O)N[C@@H](CCCN=C(N)N)C(=O)N[C@@H](Cc1ccccc1)C(=O)N[C@@H](Cc1ccc(O)cc1)C(=O)N[C@@H](CCCCN)C(=O)N[C@@H](CC(N)=O)C(=O)N[C@@H](CC(C)C)C(=O)N[C@@H](CCCCN)C(=O)N[C@@H](CCC(N)=O)C(=O)N[C@@H](Cc1ccc(O)cc1)C(=O)N[C@@H](CC(C)C)C(=O)N[C@@H](CCCCN)C(=O)N[C@H](C(=O)N[C@H](C(N)=O)C(C)C)C(C)C)C(C)C)[C@@H](C)O; experiment: as §1
# [4] = Catalytic efficiency is the ratio of (kcat/KM)
# [5] = target: L-lactate dehydrogenase B chain (Sus scrofa) (UniProt P00336); experiment: as §1
# [6] = target: L-lactate dehydrogenase B chain (Sus scrofa) (UniProt P00336); experiment: Decarboxylation of oxaloacetate to produce pyruvate was measured by the conversion of NADH to NAD+ in the lactate dehydrogenase mediated transformation of pyruvate to lactate at a uM
# L-lactate dehydrogenase B chain (Sus scrofa), sequence (P00336 whole entry): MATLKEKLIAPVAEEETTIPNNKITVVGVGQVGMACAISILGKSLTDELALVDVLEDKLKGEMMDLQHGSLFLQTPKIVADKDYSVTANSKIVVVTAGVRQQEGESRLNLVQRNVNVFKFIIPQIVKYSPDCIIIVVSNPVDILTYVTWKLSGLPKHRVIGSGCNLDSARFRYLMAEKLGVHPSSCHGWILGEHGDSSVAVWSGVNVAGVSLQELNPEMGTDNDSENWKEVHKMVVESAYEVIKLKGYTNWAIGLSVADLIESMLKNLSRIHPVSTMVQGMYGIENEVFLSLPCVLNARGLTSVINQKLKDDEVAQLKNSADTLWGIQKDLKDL
# L-lactate dehydrogenase B chain (Sus scrofa), P00336, sequence (P00336 whole entry): as above
Compound,k cat/Km [1] [M⁻¹ s⁻¹],k cat/Km [4],k cat [5] [s⁻¹],further results
CCCCN,0.0005,–,–,–
"L-lactate dehydrogenase B chain (Sus scrofa), P00336",–,–,–,Km [2]: 48 mM; Km [3]: 49.4 mM

# Second part, led by results:
k cat/Km [1] [M⁻¹ s⁻¹],k cat/Km [4],k cat [5] [s⁻¹],Compound,further results
–,1.74 M⁻¹ s⁻¹,0.086,Ac-GPSQPTYPGDDAPVEDLKRFYKNLKQYLKVV-NH2,–
0.011,–,–,NCC(N)=O,–
–,0.153 M⁻¹ s⁻¹ and 0.071 M⁻¹ s⁻¹,0.0075,CC(C)C[C@H](NC(=O)[C@H](C)NC(=O)[C@H](CCCCN)NC(=O)[C@H](CC(C)C)NC(=O)[C@H](CC(C)C)NC(=O)[C@@H](CCCCN)NC(=O)[C@H](C)NC(=O)[C@@H](N)CC(C)C)C(=O)N[C@@H](C)C(=O)N[C@@H](CCCCN)C(=O)N[C@@H](CC(C)C)C(=O)N[C@@H](CC(C)C)C(=O)N[C@@H](CCCCN)C(=O)N[C@@H](CCCCN)C(N)=O,k cat [6]: 0.015 s⁻¹

# — ChEMBL document CHEMBL1134700, “Design, synthesis and characterisation of a peptide with oxaloacetate decarboxylase activity” (Bioorg Med Chem Lett, 2001)
